# Assay results taken from patent publication US9399636B2, “Substituted dipyridylamines and uses thereof” (Genentech, Inc., priority 2012, dated 2016).
# Molecular target: T1, DLK (Homo sapiens, UniProt Q12852)
# T1 construct: N-terminally GST-tagged DLK (catalytic domain amino acid 1-520) (Carna Bioscience); GST (N); purchased Carna Bioscience
# T1 sequence (Q12852 1-520): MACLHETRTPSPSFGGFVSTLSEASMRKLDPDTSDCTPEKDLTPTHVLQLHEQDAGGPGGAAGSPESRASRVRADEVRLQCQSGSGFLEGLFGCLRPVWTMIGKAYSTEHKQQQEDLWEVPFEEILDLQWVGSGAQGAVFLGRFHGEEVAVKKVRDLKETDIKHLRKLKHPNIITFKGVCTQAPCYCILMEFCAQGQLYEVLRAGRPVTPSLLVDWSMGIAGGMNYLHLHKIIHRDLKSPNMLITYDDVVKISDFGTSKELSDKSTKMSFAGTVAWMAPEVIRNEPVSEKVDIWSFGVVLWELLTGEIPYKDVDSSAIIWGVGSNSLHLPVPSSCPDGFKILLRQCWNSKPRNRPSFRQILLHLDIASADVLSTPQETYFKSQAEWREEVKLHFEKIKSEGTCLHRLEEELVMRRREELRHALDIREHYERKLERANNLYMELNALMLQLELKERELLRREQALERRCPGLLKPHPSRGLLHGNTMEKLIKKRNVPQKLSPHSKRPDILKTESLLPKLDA
# Test: DLK TR-FRET assay
# Type: biochemical
# Conditions: 5 nM GST-tagged DLK (catalytic domain amino acid 1-520), 40 nM HIS-tagged MKK4 K131M substrate, 30 μM ATP, 60 minutes
# Outline: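 Phosphorylation of HIS-tagged MKK4 K131M (40 nM) by GST-DLK aa 1-520 (5 nM) at 30 μM ATP, pH 7.5, run 60 min at ambient temperature. Compound series started at 20 uM, diluted 1:3. Phospho-MKK4 detected by TR-FRET (Eu cryptate/D2 antibodies, 3 h, EDTA-containing buffer).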
row,Ki [nM],SMILES
1,16,"N#Cc1ccnc(Nc2cc(C3CCOCC3)cc(N3CC4(CCC4(F)F)C3)n2)c1 [Example 103, 2-[6-(5,5-Difluoro-2-aza-spiro[3.3]hept-2-yl)-4-(tetrahydro-pyran-4-yl)-pyridin-2-ylamino]-isonicotinonitrile]"
2,12.6,"N#Cc1ccnc(Nc2cc(C3CCOCC3)cc(N3CC(F)(F)C3)n2)c1 [Example 104, 2-[6-(3,3-Difluoro-azetidin-1-yl)-4-(tetrahydro-pyran-4-yl)-pyridin-2-ylamino]-isonicotinonitrile]"
3,7,"N#Cc1ccnc(Nc2cc(C3CCN(C4COC4)CC3)cc(N3CCC3)n2)c1 [Example 105, 2-(6-Azetidin-1-yl-1′-oxetan-3-yl-1′,2′,3′,4′,5′,6′-hexahydro-[4,4′]bipyridinyl-2-ylamino)-isonicotinonitrile]"
4,10,"N#Cc1ccnc(Nc2cc(C3CCN(C4COC4)CC3)cc(Cl)n2)c1 [Example 106, 2-(6-Chloro-1′-oxetan-3-yl-1′,2′,3′,4′,5′,6′-hexahydro-[4,4′]bipyridinyl-2-ylamino)-isonicotinonitrile]"
5,120,"Cc1cc(C2CCN(C(=O)C(F)(F)F)CC2)cc(Nc2cc(C#N)ccn2)n1 [Example 107, 2-[6-Methyl-1′-(2,2,2-trifluoro-acetyl)-1′,2′,3′,4′,5′,6′-hexahydro-[4,4′]bipyridinyl-2-ylamino]-isonicotinonitrile]"
6,93,"CC(=O)N1CCC(c2cc(C)nc(Nc3cc(C#N)ccn3)c2)CC1 [Example 108, 2-(1′-Acetyl-6-methyl-1′,2′,3′,4′,5′,6′-hexahydro[4,4′]bipyridinyl-2-ylamino)-isonicotinonitrile]"
7,140,"Cc1cc(C2CCN(S(C)(=O)=O)CC2)cc(Nc2cc(C#N)ccn2)n1 [Example 109, 2-(1′-Methanesulfonyl-6-methyl-1′,2′,3′,4′,5′,6′-hexahydro-[4,4′]bipyridinyl-2-ylamino)-isonicotinonitrile]"
8,93,"Cc1cc(C2CCN(C3COC3)CC2)cc(Nc2cc(C#N)ccn2)n1 [Example 110, 2-(6-Methyl-1′-oxetan-3-yl-1′,2′,3′,4′,5′,6′-hexahydro-[4,4′]bipyridinyl-2-ylamino)-isonicotinonitrile]"
9,89,"Cc1cc(C2CCNCC2)cc(Nc2cc(C#N)ccn2)n1 [Example 111, 2-(6-Methyl-1′,2′,3′,4′,5′,6′-hexahydro-[4,4′]bipyridinyl-2-ylamino)-isonicotinonitrile]"
10,220,"Cc1cc(C2=CCOCC2)cc(Nc2cc(C#N)ccn2)n1 [Example 112, 2-[4-(3,6-Dihydro-2H-pyran-4-yl)-6-methyl-pyridin-2-ylamino]-isonicotinonitrile]"
11,1600,"Cc1cc(C2CCOCC2)cc(Nc2cc(CN)ccn2)n1 [Example 113, (4-Aminomethyl-pyridin-2-yl)-[6-methyl-4-(tetrahydro-pyran-4-yl)-pyridin-2-yl]-amine]"
12,0.09,"CC1CCCN1c1cc(C2CCN(CC3CCOCC3)C2)cc(Nc2cc(C#N)ccn2)n1 (centres unmarked) [Example 115, 2-{6-(2-Methyl-pyrrolidin-1-yl)-4-[1-(tetrahydro-pyran-4-ylmethyl)-pyrrolidin-3-yl]-pyridin-2-ylamino}-isonicotinonitrile]"
13,215,"Cc1cc(C2CCN(C(=O)OC(C)(C)C)CC2)cc(Nc2cc(C#N)ccn2)n1 [Example 116, 2′-(4-Cyano-pyridin-2-ylamino)-6′-methyl-3,4,5,6-tetrahydro-2H-[4,4′]bipyridinyl-1-carboxylic acid tert-butyl ester]"
14,0.94,"FC1(F)CCN(c2cc(C3CN(C4COC4)C3)cc(Nc3cc(C(F)(F)F)ccn3)n2)C1 [Example 117, [6-(3,3-Difluoro-pyrrolidin-1-yl)-4-(1-oxetan-3-yl-azetidin-3-yl)-pyridin-2-yl]-(4-trifluoromethyl-pyridin-2-yl)-amine]"
15,4,"Cn1cc(-c2cc(C3CCOCC3)cc(Nc3cc(OC(F)F)ccn3)n2)cn1 [Example 118, (4-Difluoromethoxy-pyridin-2-yl)-[6-(1-methyl-1H-pyrazol-4-yl)-4-(tetrahydro-pyran-4-yl)-pyridin-2-yl]-amine]"
16,0.2,"CC(=O)N1CCC(c2cc(Nc3cc(C#N)ccn3)nc(N3CCC[C@H]3C)c2)CC1 [Example 119, 2-[1′-Acetyl-6-((R)-2-methyl-pyrrolidin-1-yl)-1′,2′,3′,4′,5′,6′-hexahydro-[4,4′]bipyridinyl-2-ylamino]-isonicotinonitrile]"
17,170,"FC(F)(F)c1ccnc(Nc2cc(C3CCN(C4COC4)CC3)ccn2)c1 [Example 120, (1′-Oxetan-3-yl-1′,2′,3′,4′,5′,6′-hexahydro-[4,4′]bipyridinyl-2-yl)-(4-trifluoromethyl-pyridin-2-yl)-amine]"
18,0.2,"C[C@@H]1CCCN1c1cc(C2CCN(C3COC3)CC2)cc(Nc2cc(C#N)ccn2)n1 [Example 121, 2-[6-((R)-2-Methyl-pyrrolidin-1-yl)-1′-oxetan-3-yl-1′,2′,3′,4′,5′,6′-hexahydro-[4,4′]bipyridinyl-2-ylamino]-isonicotinonitrile]"
19,0.4,"Cn1cc(-c2cc(C3CCOCC3)cc(Nc3cc(C(F)(F)F)ccn3)n2)cn1 [Example 122, [6-(1-Methyl-1H-pyrazol-4-yl)-4-(tetrahydro-pyran-4-yl)-pyridin-2-yl]-(4-trifluoromethyl-pyridin-2-yl)-amine]"
20,0.2,"C[C@@H]1CCCN1c1cc(C2CCOCC2)cc(Nc2cc(C#N)ccn2)n1 [Example 123, 2-[6-((R)-2-Methyl-pyrrolidin-1-yl)-4-(tetrahydro-pyran-4-yl)-pyridin-2-ylamino]-isonicotinonitrile]"
21,710,"N#Cc1ccnc(Nc2cc(C3CCN(C4COC4)CC3)ccn2)c1 [Example 124, 2-(1′-Oxetan-3-yl-1′,2′,3′,4′,5′,6′-hexahydro-[4,4′]bipyridinyl-2-ylamino)-isonicotinonitrile]"
22,3.1,"C[C@@H]1CCCN1c1cc(C2CCOCC2)cc(Nc2cc(C(F)(F)F)ccn2)n1 [Example 125, [6-((R)-2-Methyl-pyrrolidin-1-yl)-4-(tetrahydro-pyran-4-yl)-pyridin-2-yl]-(4-trifluoromethyl-pyridin-2-yl)-amine]"
23,6.6,"CS(=O)(=O)N1CC(c2cc(Nc3cc(C(F)(F)F)ccn3)nc(N3CCC(F)(F)C3)c2)C1 [Example 126, [6-(3,3-Difluoro-pyrrolidin-1-yl)-4-(1-methanesulfonyl-azetidin-3-yl)-pyridin-2-yl]-(4-trifluoromethyl-pyridin-2-yl)-amine]"
24,2.9,"CC(=O)N1CC(c2cc(Nc3cc(C(F)(F)F)ccn3)nc(N3CCC(F)(F)C3)c2)C1 [Example 127, 1-{3-[2-(3,3-Difluoro-pyrrolidin-1-yl)-6-(4-trifluoromethyl-pyridin-2-ylamino)-pyridin-4-yl]-azetidin-1-yl}-ethanone]"
25,450,"CS(=O)(=O)N1CCC(c2ccnc(Nc3cc(C#N)ccn3)c2)CC1 [Example 128, 2-(1′-Methanesulfonyl-1′,2′,3′,4′,5′,6′-hexahydro-[4,4′]bipyridinyl-2-ylamino)-isonicotinonitrile]"
26,510,"CC(=O)N1CCC(c2ccnc(Nc3cc(C#N)ccn3)c2)CC1 [Example 129, 2-(1′-Acetyl-1′,2′,3′,4′,5′,6′-hexahydro-[4,4′]bipyridinyl-2-ylamino)-isonicotinonitrile]"
